Measurements taken from patent US6737383B1, “Herbicidal oxadiazolidines” (priority 1999, dated 2004).

What was measured:
bedstraw = experiment: Test B pre/postemergence bedstraw; type: in vivo, Galium aparine
In short: (§1)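 Herbicidal effect was estimated by eye on a ten-point control scale after plants spent twelve to sixteen days in a greenhouse following soil or foliar treatment. Foliar sprays targeted plants at one to four leaves; all doses were formulated in a non-phytotoxic solvent with surfactant.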

blackgrass = experiment: Test B pre/postemergence blackgrass; type: in vivo, Alopecurus myosuroides
In short: as §1

surinam grass = experiment: Test B pre/postemergence surinam grass; type: in vivo, Brachiaria decumbens
In short: as §1

cocklebur = experiment: Test B pre/postemergence cocklebur; type: in vivo, Xanthium strumarium
In short: as §1

corn = experiment: Test B pre/postemergence corn; type: in vivo, Zea mays
In short: as §1

giant foxtail = experiment: Test B pre/postemergence giant foxtail; type: in vivo, Setaria faberii
In short: as §1

morningglory = experiment: Test B pre/postemergence morningglory; type: in vivo, Ipomoea hederacea
In short: as §1

pigweed = experiment: Test B pre/postemergence pigweed; type: in vivo, Amaranthus retroflexus
In short: as §1

rape = experiment: Test B pre/postemergence rape; type: in vivo, Brassica napus
In short: as §1

soybean = experiment: Test B pre/postemergence soybean; type: in vivo, Glycine max
In short: as §1

sugar beet = experiment: Test B pre/postemergence sugar beet; type: in vivo, Beta vulgaris
In short: as §1

velvetleaf = experiment: Test B pre/postemergence velvetleaf; type: in vivo, Abutilon theophrasti
In short: as §1

wheat = experiment: Test B pre/postemergence wheat; type: in vivo, Triticum aestivum
In short: as §1

wild oat = experiment: Test B pre/postemergence wild oat; type: in vivo, Avena fatua
In short: as §1

rice = experiment: Test B flood test rice; type: in vivo, Oryza sativa
In short: (§2)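 Each value is a visual injury score relative to controls, with 10 meaning complete control and 0 no effect. Evaluation took place twelve to sixteen days after the 2-leaf-stage plants were treated and kept in the greenhouse.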

smallflower flatsedge = experiment: Test B flood test smallflower flatsedge; type: in vivo, Cyperus difformis
In short: as §2

[1] = Postemergence, Rate 62 g/ha, scale 0 to 10, 0 is no effect, 10 is complete control
[2] = Preemergence, Rate 62 g/ha, scale 0 to 10, 0 is no effect, 10 is complete control
[3] = Preemergence, Rate 125 g/ha, scale 0 to 10 (0 no effect, 10 complete control)
[4] = Preemergence, Rate 250 g/ha, scale of 0 to 10 where 0 is no effect and 10 is complete control
[5] = Preemergence, Rate 500 g/ha, scale 0 (no effect) to 10 (complete control)
[6] = Rate 125 g/ha, Postemergence, scale 0 to 10, 0 no effect, 10 complete control
[7] = Postemergence, Rate 250 g/ha, scale 0 to 10, 0 no effect, 10 complete control
[8] = Rate 500 g/ha, Postemergence, 0 to 10 scale (0 no effect, 10 complete control)
[9] = Rate 125 g/ha, Postemergence section (flood test species), scale 0 to 10, 0 no effect, 10 complete control
[10] = flood test, listed under Postemergence, Rate 250 g/ha, scale 0 to 10, 0 no effect, 10 complete control

CCc1ccccc1-n1c(=O)on(C(=O)N(c2ccc(F)cc2F)C(C)C)c1=O [Compound 45]
Bedstraw plant response rating (bedstraw; [1]): 3
Plant response rating, Bedstraw (bedstraw; [2]): 0
Plant response rating, Bedstraw (bedstraw; [3]): 0
Plant response rating, Bedstraw (bedstraw; [4]): 0
Bedstraw plant response rating (bedstraw; [5]): 0
Bedstraw plant response rating (bedstraw; [6]): 5
Blackgrass plant response rating (blackgrass; [1]): 0
Blackgrass plant response rating (blackgrass; [7]): 4
Plant response rating, Blackgrass (blackgrass; [2]): 0
Plant response rating, Blackgrass (blackgrass; [3]): 0
Plant response rating, Blackgrass (blackgrass; [4]): 0
Blackgrass plant response rating (blackgrass; [5]): 0
Blackgrass plant response rating (blackgrass; [6]): 0
Blackgrass plant response rating (blackgrass; [8]): 4
B. signalgrass plant response rating (surinam grass; [1]): 0
B. signalgrass plant response rating (surinam grass; [7]): 0
Plant response rating, B. signalgrass (surinam grass; [2]): 0
Plant response rating, B. signalgrass (surinam grass; [3]): 2
Plant response rating, B. signalgrass (surinam grass; [4]): 4
B. signalgrass plant response rating (surinam grass; [5]): 9
B. signalgrass plant response rating (surinam grass; [6]): 0
B. signalgrass plant response rating (surinam grass; [8]): 2
Cocklebur plant response rating (cocklebur; [1]): 0
Cocklebur plant response rating (cocklebur; [7]): 2
Plant response rating, Cocklebur (cocklebur; [2]): 0
Plant response rating, Cocklebur (cocklebur; [3]): 0
Plant response rating, Cocklebur (cocklebur; [4]): 0
Cocklebur plant response rating (cocklebur; [5]): 0
Cocklebur plant response rating (cocklebur; [6]): 1
Cocklebur plant response rating (cocklebur; [8]): 5
Corn plant response rating (corn; [1]): 0
Corn plant response rating (corn; [7]): 0
Plant response rating, Corn (corn; [2]): 0
Plant response rating, Corn (corn; [3]): 0
Plant response rating, Corn (corn; [4]): 0
Corn plant response rating (corn; [5]): 1
Corn plant response rating (corn; [6]): 0
Corn plant response rating (corn; [8]): 0
Giant foxtail plant response rating (giant foxtail; [1]): 0
Giant foxtail plant response rating (giant foxtail; [7]): 9
Plant response rating, Giant foxtail (giant foxtail; [2]): 7
Plant response rating, Giant foxtail (giant foxtail; [3]): 10
Plant response rating, Giant foxtail (giant foxtail; [4]): 10
Giant foxtail plant response rating (giant foxtail; [5]): 10
Giant foxtail plant response rating (giant foxtail; [6]): 0
Giant foxtail plant response rating (giant foxtail; [8]): 9
Morningglory plant response rating (morningglory; [1]): 0
Morningglory plant response rating (morningglory; [7]): 0
Plant response rating, Morningglory (morningglory; [2]): 0
Plant response rating, Morningglory (morningglory; [3]): 0
Plant response rating, Morningglory (morningglory; [4]): 0
Morningglory plant response rating (morningglory; [5]): 0
Morningglory plant response rating (morningglory; [6]): 0
Morningglory plant response rating (morningglory; [8]): 3
Redroot pigweed plant response rating (pigweed; [1]): 0
Redroot pigweed plant response rating (pigweed; [7]): 0
Plant response rating, Redroot pigweed (pigweed; [2]): 0
Plant response rating, Redroot pigweed (pigweed; [3]): 0
Plant response rating, Redroot pigweed (pigweed; [4]): 8
Redroot pigweed plant response rating (pigweed; [5]): 8
Redroot pigweed plant response rating (pigweed; [6]): 0
Redroot pigweed plant response rating (pigweed; [8]): 0
Rape plant response rating (rape; [1]): 0
Rape plant response rating (rape; [7]): 0
Plant response rating, Rape (rape; [2]): 0
Plant response rating, Rape (rape; [3]): 0
Plant response rating, Rape (rape; [4]): 0
Rape plant response rating (rape; [5]): 0
Rape plant response rating (rape; [6]): 0
Rape plant response rating (rape; [8]): 0
Soybean plant response rating (soybean; [1]): 1
Soybean plant response rating (soybean; [7]): 1
Plant response rating, Soybean (soybean; [2]): 0
Plant response rating, Soybean (soybean; [3]): 0
Plant response rating, Soybean (soybean; [4]): 0
Soybean plant response rating (soybean; [5]): 3
Soybean plant response rating (soybean; [6]): 1
Sugarbeets plant response rating (sugar beet; [1]): 0
Sugarbeets plant response rating (sugar beet; [7]): 1
Plant response rating, Sugarbeets (sugar beet; [2]): 0
Plant response rating, Sugarbeets (sugar beet; [3]): 0
Plant response rating, Sugarbeets (sugar beet; [4]): 7
Sugarbeets plant response rating (sugar beet; [5]): 8
Sugarbeets plant response rating (sugar beet; [6]): 0
Velvetleaf plant response rating (velvetleaf; [1]): 0
Velvetleaf plant response rating (velvetleaf; [7]): 0
Plant response rating, Velvetleaf (velvetleaf; [2]): 0
Plant response rating, Velvetleaf (velvetleaf; [3]): 0
Plant response rating, Velvetleaf (velvetleaf; [4]): 0
Velvetleaf plant response rating (velvetleaf; [5]): 3
Velvetleaf plant response rating (velvetleaf; [6]): 0
Wheat plant response rating (wheat; [1]): 0
Wheat plant response rating (wheat; [7]): 0
Plant response rating, Wheat (wheat; [2]): 0
Plant response rating, Wheat (wheat; [3]): 0
Plant response rating, Wheat (wheat; [4]): 0
Wheat plant response rating (wheat; [5]): 0
Wheat plant response rating (wheat; [6]): 0
Wild oats plant response rating (wild oat; [1]): 0
Wild oats plant response rating (wild oat; [7]): 0
Plant response rating, Wild oats (wild oat; [3]): 0
Plant response rating, Wild oats (wild oat; [4]): 0
Wild oats plant response rating (wild oat; [5]): 0
Wild oats plant response rating (wild oat; [6]): 0
Rice plant response rating (rice; [1]): 0
Rice plant response rating (rice; [9]): 0
Rice plant response rating (rice; Rate 500 g/ha, Postemergence section of Table B, 0 to 10 scale (0 no effect, 10 complete control)): 0
Rice plant response rating (rice; [10]): 0
S. Flatsedge plant response rating (smallflower flatsedge; [1]): 0
S. Flatsedge plant response rating (smallflower flatsedge; [9]): 0
S. Flatsedge plant response rating (smallflower flatsedge; [10]): 0
